The values that follow come from ChEMBL document CHEMBL4477252, “Optimization of microtubule affinity regulating kinase (MARK) inhibitors with improved physical properties” (Bioorg Med Chem Lett, 2016).

SMILES strings stand for the structures. Some results are limits rather than exact numbers.

Chain of G protein-coupled receptor kinase 6 (P43250 whole entry): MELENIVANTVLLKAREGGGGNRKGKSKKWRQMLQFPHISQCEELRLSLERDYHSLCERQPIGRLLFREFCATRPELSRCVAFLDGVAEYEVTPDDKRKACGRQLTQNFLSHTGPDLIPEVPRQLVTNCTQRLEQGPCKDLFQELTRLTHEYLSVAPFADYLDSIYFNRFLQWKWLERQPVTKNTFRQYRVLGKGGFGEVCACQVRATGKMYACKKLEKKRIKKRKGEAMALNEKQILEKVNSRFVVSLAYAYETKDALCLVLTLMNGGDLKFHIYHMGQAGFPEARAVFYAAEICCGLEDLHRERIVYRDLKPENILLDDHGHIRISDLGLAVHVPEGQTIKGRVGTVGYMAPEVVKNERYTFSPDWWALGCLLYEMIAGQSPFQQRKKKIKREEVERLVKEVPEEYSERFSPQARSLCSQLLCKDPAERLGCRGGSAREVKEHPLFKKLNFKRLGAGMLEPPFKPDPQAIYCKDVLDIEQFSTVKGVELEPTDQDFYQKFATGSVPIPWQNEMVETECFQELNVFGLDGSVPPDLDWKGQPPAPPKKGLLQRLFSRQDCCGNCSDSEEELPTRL
Chain of Dual specificity protein kinase CLK2 (P49760 whole entry, the tested form may be a part): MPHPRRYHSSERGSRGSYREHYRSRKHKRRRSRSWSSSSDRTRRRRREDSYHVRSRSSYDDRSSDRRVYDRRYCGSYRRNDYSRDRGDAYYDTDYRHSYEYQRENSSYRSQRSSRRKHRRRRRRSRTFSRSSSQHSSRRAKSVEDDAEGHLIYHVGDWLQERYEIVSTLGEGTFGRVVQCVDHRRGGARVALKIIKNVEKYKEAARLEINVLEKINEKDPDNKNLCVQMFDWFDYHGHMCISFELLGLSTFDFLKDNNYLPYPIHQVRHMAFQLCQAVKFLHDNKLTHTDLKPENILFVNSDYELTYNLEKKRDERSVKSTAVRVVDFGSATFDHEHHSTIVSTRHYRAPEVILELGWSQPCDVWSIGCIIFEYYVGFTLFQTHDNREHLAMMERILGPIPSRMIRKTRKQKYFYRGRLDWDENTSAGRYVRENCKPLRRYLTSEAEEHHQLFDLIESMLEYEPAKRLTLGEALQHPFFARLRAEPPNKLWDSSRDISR
Chain of Mast/stem cell growth factor receptor Kit (P10721 whole entry): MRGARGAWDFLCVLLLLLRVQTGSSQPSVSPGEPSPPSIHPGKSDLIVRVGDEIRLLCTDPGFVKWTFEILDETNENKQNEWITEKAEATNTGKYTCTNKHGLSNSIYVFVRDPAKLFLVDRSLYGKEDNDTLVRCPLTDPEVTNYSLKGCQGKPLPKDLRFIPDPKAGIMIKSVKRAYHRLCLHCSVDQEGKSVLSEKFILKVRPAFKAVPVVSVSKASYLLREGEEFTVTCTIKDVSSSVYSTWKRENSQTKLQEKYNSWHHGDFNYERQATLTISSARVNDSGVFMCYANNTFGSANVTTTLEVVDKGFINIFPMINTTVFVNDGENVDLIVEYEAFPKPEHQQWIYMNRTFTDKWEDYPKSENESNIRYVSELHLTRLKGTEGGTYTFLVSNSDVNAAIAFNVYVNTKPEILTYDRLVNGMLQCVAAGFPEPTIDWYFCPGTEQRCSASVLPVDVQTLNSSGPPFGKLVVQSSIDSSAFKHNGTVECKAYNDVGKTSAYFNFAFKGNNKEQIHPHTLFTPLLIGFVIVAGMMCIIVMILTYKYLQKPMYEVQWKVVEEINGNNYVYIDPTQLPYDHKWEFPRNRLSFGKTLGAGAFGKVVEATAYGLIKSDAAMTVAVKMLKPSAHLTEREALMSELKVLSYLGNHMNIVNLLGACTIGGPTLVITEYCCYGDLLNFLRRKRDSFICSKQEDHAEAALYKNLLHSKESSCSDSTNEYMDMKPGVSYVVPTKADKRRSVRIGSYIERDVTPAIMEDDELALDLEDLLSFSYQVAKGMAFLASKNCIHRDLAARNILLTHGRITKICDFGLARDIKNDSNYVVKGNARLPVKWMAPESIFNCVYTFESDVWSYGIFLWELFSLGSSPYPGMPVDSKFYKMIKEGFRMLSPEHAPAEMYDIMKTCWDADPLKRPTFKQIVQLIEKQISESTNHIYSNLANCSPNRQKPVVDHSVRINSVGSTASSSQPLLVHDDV

The first assay has as its target Dual specificity protein kinase CLK2 (Homo sapiens, UniProt P49760). As to the kind of experiment: Inhibition of recombinant human GST-tagged CLK2 catalytic domain expressed in baculovirus expression system by Z'-LYTE assay.
In the case of `O=C(NCC(F)(F)F)c1cc(-c2cnn3cc(-c4ccc(OCCN5CCCCC5)cc4)cnc23)cs1`, the IC50 was under 0.01 µM.

For the molecule `Cn1cc(-c2cnc3c(-c4csc(C(=O)NCC(F)(F)F)c4)cnn3c2)cn1`, the IC50 is under 0.01 µM.

In the case of `Cc1sc(C(=O)N[C@@H]2[C@H](N)CCCC2(F)F)cc1-c1cnn2cc(Cl)cnc12`, the concentration for half-maximal inhibition (IC50) is 0.11 µM.

With `Cn1cc(-c2cnc3c(-c4csc(C(=O)N[C@@H]5CCCC[C@@H]5N)c4)cnn3c2)cn1` (racemic), the IC50 worked out at 0.014 µM.

Another assay addresses G protein-coupled receptor kinase 6 (Homo sapiens, UniProt P43250). Nature of the assay: Inhibition of full-length recombinant human GST-tagged GRK6 expressed in baculovirus expression system by Z'-LYTE assay.
For `O=C(NCC(F)(F)F)c1cc(-c2cnn3cc(-c4ccc(OCCN5CCCCC5)cc4)cnc23)cs1`, the half-inhibitory concentration (IC50) was 17 µM.

Turning to `Cn1cc(-c2cnc3c(-c4csc(C(=O)NCC(F)(F)F)c4)cnn3c2)cn1`, the concentration for half-maximal inhibition (IC50) was over 100 µM.

For `Cc1sc(C(=O)N[C@@H]2[C@H](N)CCCC2(F)F)cc1-c1cnn2cc(Cl)cnc12`, the IC50 came to 1.7 µM.

For `Cn1cc(-c2cnc3c(-c4csc(C(=O)N[C@@H]5CCCC[C@@H]5N)c4)cnn3c2)cn1` (racemic), the IC50 was 0.5 µM.

In a further assay the target is Glycogen synthase kinase-3 beta (Homo sapiens, UniProt P49841). As to the kind of experiment: Inhibition of full-length recombinant human His-tagged GSK3B expressed in baculovirus expression system by Z'-LYTE assay.
Chain of Glycogen synthase kinase-3 beta (P49841 whole entry): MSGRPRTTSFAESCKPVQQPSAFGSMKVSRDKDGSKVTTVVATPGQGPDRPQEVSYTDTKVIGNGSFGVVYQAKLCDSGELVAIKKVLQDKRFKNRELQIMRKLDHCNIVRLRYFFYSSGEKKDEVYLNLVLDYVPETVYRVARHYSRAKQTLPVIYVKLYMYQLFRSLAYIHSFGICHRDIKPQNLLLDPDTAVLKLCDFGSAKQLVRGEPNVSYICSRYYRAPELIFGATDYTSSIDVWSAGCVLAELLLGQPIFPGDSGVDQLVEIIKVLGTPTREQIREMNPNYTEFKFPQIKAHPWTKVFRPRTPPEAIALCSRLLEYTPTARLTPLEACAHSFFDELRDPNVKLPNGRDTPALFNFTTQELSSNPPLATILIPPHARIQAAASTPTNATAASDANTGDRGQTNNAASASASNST
On to `O=C(NCC(F)(F)F)c1cc(-c2cnn3cc(-c4ccc(OCCN5CCCCC5)cc4)cnc23)cs1`, for which the IC50 is 0.22 µM.

For the molecule `Cn1cc(-c2cnc3c(-c4csc(C(=O)NCC(F)(F)F)c4)cnn3c2)cn1`, the IC50 is 0.084 µM.

For `Cc1sc(C(=O)N[C@@H]2[C@H](N)CCCC2(F)F)cc1-c1cnn2cc(Cl)cnc12`, the IC50 worked out at 0.15 µM.

On to `Cn1cc(-c2cnc3c(-c4csc(C(=O)N[C@@H]5CCCC[C@@H]5N)c4)cnn3c2)cn1` (racemic), for which the IC50 worked out at 0.023 µM.

The next assay concerns the target Mast/stem cell growth factor receptor Kit (Homo sapiens, UniProt P10721). Nature of the assay: Inhibition of recombinant human His-tagged cytoplasmic KIT expressed in baculovirus expression system by Z'-LYTE assay.
For the molecule `O=C(NCC(F)(F)F)c1cc(-c2cnn3cc(-c4ccc(OCCN5CCCCC5)cc4)cnc23)cs1`, the IC50 was determined as 2.7 µM.

For `Cn1cc(-c2cnc3c(-c4csc(C(=O)NCC(F)(F)F)c4)cnn3c2)cn1`, the IC50 was 0.81 µM.

On to `Cc1sc(C(=O)N[C@@H]2[C@H](N)CCCC2(F)F)cc1-c1cnn2cc(Cl)cnc12`, for which the IC50 was over 100 µM.

Turning to `Cn1cc(-c2cnc3c(-c4csc(C(=O)N[C@@H]5CCCC[C@@H]5N)c4)cnn3c2)cn1` (racemic), the concentration for half-maximal inhibition (IC50) was determined as 0.69 µM.

The next assay deals with Leucine-rich repeat serine/threonine-protein kinase 2 (Homo sapiens, UniProt Q5S007). Nature of the assay: Inhibition of recombinant human GST-tagged LRRK2 catalytic domain expressed in baculovirus expression system by Adapta assay.
On to `O=C(NCC(F)(F)F)c1cc(-c2cnn3cc(-c4ccc(OCCN5CCCCC5)cc4)cnc23)cs1`, for which the half-maximal inhibitory concentration (IC50) was 0.014 µM.

In the case of `Cn1cc(-c2cnc3c(-c4csc(C(=O)NCC(F)(F)F)c4)cnn3c2)cn1`, the IC50 was under 0.01 µM.

For `Cc1sc(C(=O)N[C@@H]2[C@H](N)CCCC2(F)F)cc1-c1cnn2cc(Cl)cnc12`, the IC50 was 0.062 µM.

Consider `Cn1cc(-c2cnc3c(-c4csc(C(=O)N[C@@H]5CCCC[C@@H]5N)c4)cnn3c2)cn1` (racemic), for which the IC50 was 0.0031 µM.

For the next assay, the target named is T1, NUAK family SNF1-like kinase 1 (Homo sapiens, UniProt O60285).
T1 sequence (O60285 whole entry): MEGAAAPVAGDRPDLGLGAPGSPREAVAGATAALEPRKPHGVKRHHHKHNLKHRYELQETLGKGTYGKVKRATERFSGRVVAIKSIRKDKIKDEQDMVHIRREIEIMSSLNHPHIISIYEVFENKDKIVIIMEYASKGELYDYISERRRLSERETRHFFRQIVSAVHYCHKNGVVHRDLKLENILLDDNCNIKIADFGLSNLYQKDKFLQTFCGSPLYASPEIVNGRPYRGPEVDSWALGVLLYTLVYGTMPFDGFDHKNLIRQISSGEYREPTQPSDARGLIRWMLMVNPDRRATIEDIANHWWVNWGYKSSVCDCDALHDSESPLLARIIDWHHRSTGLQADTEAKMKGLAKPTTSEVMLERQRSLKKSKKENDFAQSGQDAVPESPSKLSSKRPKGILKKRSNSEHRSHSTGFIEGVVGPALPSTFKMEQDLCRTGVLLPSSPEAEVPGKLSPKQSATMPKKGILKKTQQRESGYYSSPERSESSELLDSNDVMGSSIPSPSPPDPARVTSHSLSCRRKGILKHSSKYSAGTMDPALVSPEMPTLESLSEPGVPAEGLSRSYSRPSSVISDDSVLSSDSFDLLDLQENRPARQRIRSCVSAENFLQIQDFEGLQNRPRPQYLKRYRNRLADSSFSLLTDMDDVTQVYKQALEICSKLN
As to the kind of experiment: Inhibition of full-length recombinant human His-tagged NUAK1 expressed in baculovirus expression system by Adapta assay.
Take `O=C(NCC(F)(F)F)c1cc(-c2cnn3cc(-c4ccc(OCCN5CCCCC5)cc4)cnc23)cs1`: the half-maximal inhibitory concentration (IC50) was 0.015 µM.

Turning to `Cn1cc(-c2cnc3c(-c4csc(C(=O)NCC(F)(F)F)c4)cnn3c2)cn1`, the IC50 amounted to 0.019 µM.

`Cc1sc(C(=O)N[C@@H]2[C@H](N)CCCC2(F)F)cc1-c1cnn2cc(Cl)cnc12`: the IC50 came out at 0.2 µM.

As for `Cn1cc(-c2cnc3c(-c4csc(C(=O)N[C@@H]5CCCC[C@@H]5N)c4)cnn3c2)cn1` (racemic), the IC50 worked out at 0.0042 µM.

In the next assay the target is T2, Protein kinase C iota type (Homo sapiens, UniProt P41743).
T2 sequence (P41743 whole entry): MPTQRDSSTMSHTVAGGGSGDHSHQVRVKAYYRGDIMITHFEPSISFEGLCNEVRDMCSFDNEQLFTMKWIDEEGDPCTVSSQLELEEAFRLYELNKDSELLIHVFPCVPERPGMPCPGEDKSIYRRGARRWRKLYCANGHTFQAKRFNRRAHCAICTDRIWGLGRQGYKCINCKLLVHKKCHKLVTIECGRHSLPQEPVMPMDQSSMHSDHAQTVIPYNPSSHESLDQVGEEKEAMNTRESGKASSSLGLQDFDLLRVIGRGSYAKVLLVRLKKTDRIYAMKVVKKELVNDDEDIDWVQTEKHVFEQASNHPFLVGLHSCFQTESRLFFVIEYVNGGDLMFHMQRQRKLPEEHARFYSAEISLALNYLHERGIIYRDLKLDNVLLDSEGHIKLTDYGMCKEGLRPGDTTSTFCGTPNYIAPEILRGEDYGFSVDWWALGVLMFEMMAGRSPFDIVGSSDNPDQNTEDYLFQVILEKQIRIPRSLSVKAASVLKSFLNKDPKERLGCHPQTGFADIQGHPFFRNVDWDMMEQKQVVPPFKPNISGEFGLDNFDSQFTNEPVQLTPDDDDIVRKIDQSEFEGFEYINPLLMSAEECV
Nature of the assay: Inhibition of full-length recombinant human His-tagged PRKCI expressed in baculovirus expression system by Z'-LYTE assay.
Turning to `O=C(NCC(F)(F)F)c1cc(-c2cnn3cc(-c4ccc(OCCN5CCCCC5)cc4)cnc23)cs1`, the IC50 worked out at 1.5 µM.

Consider `Cn1cc(-c2cnc3c(-c4csc(C(=O)NCC(F)(F)F)c4)cnn3c2)cn1`, for which the IC50 amounted to 6.7 µM.

Turning to `Cc1sc(C(=O)N[C@@H]2[C@H](N)CCCC2(F)F)cc1-c1cnn2cc(Cl)cnc12`, the IC50 came out at 0.72 µM.

`Cn1cc(-c2cnc3c(-c4csc(C(=O)N[C@@H]5CCCC[C@@H]5N)c4)cnn3c2)cn1` (racemic): the IC50 is 0.037 µM.

Another assay deals with Protein kinase C theta type (Homo sapiens, UniProt Q04759). Nature of the assay: Inhibition of full-length recombinant human His-tagged PRKCQ expressed in baculovirus expression system by Z'-LYTE assay.
Chain of Protein kinase C theta type (Q04759 whole entry): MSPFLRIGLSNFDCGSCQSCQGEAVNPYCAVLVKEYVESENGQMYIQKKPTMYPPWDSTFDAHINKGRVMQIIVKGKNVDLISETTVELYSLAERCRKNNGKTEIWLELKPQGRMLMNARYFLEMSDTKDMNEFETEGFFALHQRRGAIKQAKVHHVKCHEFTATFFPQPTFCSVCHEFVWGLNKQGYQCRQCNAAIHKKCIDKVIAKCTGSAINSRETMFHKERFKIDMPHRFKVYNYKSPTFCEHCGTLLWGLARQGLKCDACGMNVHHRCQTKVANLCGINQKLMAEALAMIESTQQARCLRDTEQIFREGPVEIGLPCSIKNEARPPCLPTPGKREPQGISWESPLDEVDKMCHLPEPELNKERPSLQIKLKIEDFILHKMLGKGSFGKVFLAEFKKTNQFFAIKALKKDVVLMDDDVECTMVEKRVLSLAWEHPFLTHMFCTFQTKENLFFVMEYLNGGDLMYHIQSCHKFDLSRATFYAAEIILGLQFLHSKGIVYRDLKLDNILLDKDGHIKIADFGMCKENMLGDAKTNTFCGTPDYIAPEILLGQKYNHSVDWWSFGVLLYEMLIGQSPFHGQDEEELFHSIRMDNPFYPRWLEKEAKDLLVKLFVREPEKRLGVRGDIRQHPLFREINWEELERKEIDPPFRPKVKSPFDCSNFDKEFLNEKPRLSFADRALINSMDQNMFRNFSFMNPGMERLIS
On to `O=C(NCC(F)(F)F)c1cc(-c2cnn3cc(-c4ccc(OCCN5CCCCC5)cc4)cnc23)cs1`, for which the IC50 turned out to be 6.6 µM.

On to `Cn1cc(-c2cnc3c(-c4csc(C(=O)NCC(F)(F)F)c4)cnn3c2)cn1`, for which the IC50 was over 100 µM.

Consider `Cc1sc(C(=O)N[C@@H]2[C@H](N)CCCC2(F)F)cc1-c1cnn2cc(Cl)cnc12`, for which the IC50 is 8.7 µM.

For the molecule `Cn1cc(-c2cnc3c(-c4csc(C(=O)N[C@@H]5CCCC[C@@H]5N)c4)cnn3c2)cn1` (racemic), the concentration for half-maximal inhibition (IC50) worked out at 0.27 µM.

The next assay deals with Protein-tyrosine kinase 6 (Homo sapiens, UniProt Q13882). Nature of the assay: Inhibition of full-length recombinant human His-tagged PTK6 expressed in baculovirus expression system by Z'-LYTE assay.
Chain of Protein-tyrosine kinase 6 (Q13882 whole entry): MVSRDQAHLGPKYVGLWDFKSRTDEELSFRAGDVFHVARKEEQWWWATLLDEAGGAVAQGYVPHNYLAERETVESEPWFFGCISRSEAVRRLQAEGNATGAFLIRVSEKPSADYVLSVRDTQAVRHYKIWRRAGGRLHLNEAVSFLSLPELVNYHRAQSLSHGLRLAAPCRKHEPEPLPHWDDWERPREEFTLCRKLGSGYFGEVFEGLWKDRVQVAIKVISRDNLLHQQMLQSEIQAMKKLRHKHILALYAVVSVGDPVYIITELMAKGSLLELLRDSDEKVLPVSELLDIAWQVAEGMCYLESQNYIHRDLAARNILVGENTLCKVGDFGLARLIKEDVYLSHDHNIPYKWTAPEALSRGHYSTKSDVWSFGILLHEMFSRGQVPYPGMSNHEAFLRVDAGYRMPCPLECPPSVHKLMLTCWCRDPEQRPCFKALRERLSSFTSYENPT
As for `O=C(NCC(F)(F)F)c1cc(-c2cnn3cc(-c4ccc(OCCN5CCCCC5)cc4)cnc23)cs1`, the IC50 came out at 1.7 µM.

Regarding `Cn1cc(-c2cnc3c(-c4csc(C(=O)NCC(F)(F)F)c4)cnn3c2)cn1`, the half-maximal inhibitory concentration (IC50) is over 100 µM.

Consider `Cc1sc(C(=O)N[C@@H]2[C@H](N)CCCC2(F)F)cc1-c1cnn2cc(Cl)cnc12`, for which the IC50 was over 100 µM.

Consider `Cn1cc(-c2cnc3c(-c4csc(C(=O)N[C@@H]5CCCC[C@@H]5N)c4)cnn3c2)cn1` (racemic), for which the half-maximal inhibitory concentration (IC50) was 0.39 µM.

The target of a further assay is T3, Tyrosine-protein kinase ZAP-70 (Homo sapiens, UniProt P43403).
T3 sequence (P43403 whole entry): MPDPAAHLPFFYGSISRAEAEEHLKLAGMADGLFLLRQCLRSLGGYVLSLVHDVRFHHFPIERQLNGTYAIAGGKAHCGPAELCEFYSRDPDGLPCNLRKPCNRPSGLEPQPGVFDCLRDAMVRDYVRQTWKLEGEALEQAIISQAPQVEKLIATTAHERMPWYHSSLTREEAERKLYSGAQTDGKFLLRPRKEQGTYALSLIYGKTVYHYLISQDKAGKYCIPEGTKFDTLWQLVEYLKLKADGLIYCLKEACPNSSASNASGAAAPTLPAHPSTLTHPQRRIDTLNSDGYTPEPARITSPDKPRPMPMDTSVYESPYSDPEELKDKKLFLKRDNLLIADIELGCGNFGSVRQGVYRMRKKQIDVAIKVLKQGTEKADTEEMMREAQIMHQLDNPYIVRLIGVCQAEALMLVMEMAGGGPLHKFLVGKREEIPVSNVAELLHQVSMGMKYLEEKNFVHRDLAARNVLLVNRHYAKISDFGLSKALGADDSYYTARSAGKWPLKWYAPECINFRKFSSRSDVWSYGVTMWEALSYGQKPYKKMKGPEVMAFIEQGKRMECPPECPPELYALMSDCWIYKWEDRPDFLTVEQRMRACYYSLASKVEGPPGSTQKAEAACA
Nature of the assay: Inhibition of full-length recombinant human His-tagged cytoplasmic ZAP70 expressed in baculovirus expression system by Z'-LYTE assay.
On to `O=C(NCC(F)(F)F)c1cc(-c2cnn3cc(-c4ccc(OCCN5CCCCC5)cc4)cnc23)cs1`, for which the IC50 is over 100 µM.

Turning to `Cn1cc(-c2cnc3c(-c4csc(C(=O)NCC(F)(F)F)c4)cnn3c2)cn1`, the IC50 is over 100 µM.

As to `Cc1sc(C(=O)N[C@@H]2[C@H](N)CCCC2(F)F)cc1-c1cnn2cc(Cl)cnc12`, the IC50 was over 100 µM.

For `Cn1cc(-c2cnc3c(-c4csc(C(=O)N[C@@H]5CCCC[C@@H]5N)c4)cnn3c2)cn1` (racemic), the IC50 is over 10 µM.
